According to patent US8198033B2, “Methods and materials for observing apoptosis” (Genentech, Inc., priority 2006, dated 2012):

Columns and labels:
Assay type in all cases: cell-based, human
[1] = test system: DynG273D-transduced BJAB cells; test: Apoptosis assay (sub-diploid DNA, DNA fragmentation); conditions: induction of dynG273D and temperature-shift to 38° C.
Experimental: Cells were stained with propidium iodide after ethanol fixation and RNase treatment and the amount of sub-diploid DNA was analyzed by flow cytometry as previously described, using Expo32 software with an Epics XL.MCL cytometer (Coulter Beckman), (see, e.g., Nicholson, D. W., Cell Death Differ 6, 1028-42 (1999)).

caspase-3/7 = test: Caspase-3/7 activity assay (Apo-One); conditions: after induction of dynG273D, 38° C. compared to 30° C.
Experimental: The caspase-3/7 assay was performed using Apo-One Homogenous Caspase-3/7 Assay (Promega). […] Lysates were incubated at room temperature for 1 hour before reading in a fluorometer at 485/530 […].

BJAB and Colo205 cells = test: Transferrin (Tf) endocytosis rate by flow cytometry
Experimental: The cells were then equilibrated on ice for 30 min with Alexa-647-conjugated Tf (^647TF) and uptake at 37° C. was measured by flow cytometry. Each endocytosis rate was derived from the slope of the initial linear phase of a 4 min uptake kinetics plot (a, inset). […] Rates were normalized to the DMSO treated sample (±SEM).
Sedimented cells were resuspended in cold 2% paraformaldehyde/PBS and mean fluorescence intensity of 10,000 cells quantified with a Coulter Epics Elite-ESP flow cytometer (Hialeah, Fla.). Endocytic rates were determined from linear slopes of steady-state internal/surface plots (see, e.g., Wiley, H. S. et. al, J Biol Chem 257, 4222-9 (1982)). For temperature-shift experiments, ice binding incubations were avoided. Instead, cells were preconditioned for 20 min and maintained at 30° C. or 38° C. in binding medium, incubated an additional 0 (control) or 20 min with ^647Tf, chilled on ice for 30 min, and processed for flow cytometry to determine internal/surface ^647Tf ratios.

DISC = DISC immunoprecipitation
Experimental: (a) BJAB cells were equilibrated with ^647Tf on ice, incubated for the indicated uptake interval at 37° C. or on ice, then fluorescence quantified by flow cytometry. […] DISC-associated FADD and caspase-8 were visualized by immunoblot. (c, d) Dyn^G273D-transduced BJAB cells were treated with buffer (No Dox) or doxycyline (Dox) and shifted to 38° C. for 20 min to inactivate dynamin. The cells were treated with crosslinked Apo2L/TRAIL for the indicated amounts of time and the DISC was immunoprecipitated. DISC-associated FADD and caspase-8 were visualized by immunoblot (c) or DISC-associated caspase-8 activity was measured as described previously (Sharp et al. J Biol Chem 280, 19401-409, 2005).
BJAB cells (1×10^7 per time point) were treated with Flag-Apo2L/TRAIL cross-linked by anti-FLAG M2 Abs, collected, lysed, immunoprecipitated and the DISC was analyzed as described (see, e.g., Kischkel, F. C. et al., Immunity 12, 611-20 (2000)).

DR5 = test: Temperature-shift DR5 uptake in DynG273D-transduced BJAB cells; conditions: doxycyclin-stimulated dynG273D expression, 20 min
Experimental: (a-d) Dyn^G273D-transduced HeLa-M cells were puromycin-selected, doxycycline-induced, pre-incubated for 20 min at the indicated temperature, then incubated another 20 min in the presence of Alexa-488 conjugated Tf (^488Tf). Cells were then processed for immunofluorescence microscopy using a dynamin-1 specific antibody. (e, f) Nontransduced (parental) or clonal Dyn1^G273D-transduced BJAB cells with (+dox) or without (no dox) doxycycline induction were assayed for ^488Tf or ^6475C7 uptake over a 20 min period at 30° C. (white bars) or 38° C. (black bars) by flow cytometry and means plotted (±SD).
Cells were acid stripped or not and quantified by flow cytometry.

[2] = test system: AP2α, AP1/2β, clathrin heavy chain (CHC), dynamin; test: Immunoblot for cleavage of clathrin-dependent endocytosis machinery and caspases in cell lysates
Experimental: (b) Colo205 cells were treated as in (a) and analyzed by immunoblot for processing of specific components of various types of clathrin-associated endocytic trafficking.
Open arrows indicate cleavage products and solid arrows indicate full-length proteins.
(c) BJAB cells were treated with crosslinked Apo2L/TRAIL and processing of dynamin was determined by immunoblot.
The cells were analyzed by immunoblot for processing of caspase-8, caspase-9, caspase-3, and AP2α.
Human colorectal adenocarcinoma Colo205 cells human B cell lymphoma BJAB cells and human T cell carcinoma Jurkat wild type cells (A3 clone), FADD-deficient (E1) and caspase-8-deficient (I9.3) were cultured in RPMI 1640+10% fetal bovine serum (FBS)+2 mM glutamine+1000 U/ml Penicillin-Streptomycin (Life Technologies). Human cervical carcinoma HeLa-M cells human breast adenocarcinoma MCF7 and human colorectal adenocarcinomas HCT15, HCT8, SW948, Colo320, human fibrosarcoma HT180 (ATCC), HCT116 Bax(−/−), HCT116 Bax(+/−) were grown in 50:50 Dulbecco's modified Eagle's and FK12 medium+10% FBS+1000 U/ml Penicillin-Streptomycin. cDNA clones encoding temperature-sensitive dynamins were the G273D mutant and dominant negative K44A mutant dynamin-1 (Dyn^G273D and Dyn^K44A, respectively). Dyn^G273D was expressed from pHUSH-ProEx, a single retroviral plasmid tetracycline-inducible expression system constructed at Genentech. The cDNA was first cloned into a shuttle plasmid containing a CMV enhancer-promoter sequence with two copies of the tetracycline operator TetO2, then transferred via in vitro phage lamda-based recombination, or Gateway® technology (Invitrogen, Carlsbad), to a Moloney murine leukemia virus backbone vector in which the wild type Tet repressor is driven by a separate β-actin promoter and followed by an internal ribosomal entry sequence and puromycin selection cassette. Dyn^K44A was expressed from the 2-vector tetracycline-inducible retroviral expression system, pRevTet-On/pRev-Tre (Clontech), using serial infections. Retroviral vectors were transfected into Phoenix amphotropic Moloney Murine Leukemia Virus packaging cells using Lipofectamine 2000 […]. Retroviral particles were harvested and used in HeLa-M and BJAB cell infections as described previously (Simpson et al. J Cell Biol 137, 835-45, 1997). Dyn^G273 infected cells were puromycin selected (2-3 μg/ml) for 1-2 weeks and cloned either by manually picking individual HeLa-M colonies or by FACS sorting of resistant BJAB cells (gated for exclusion of propidium iodide) and single cell seeding in 96-well cell culture plates using an EPICS ELITE-ESP equipped with an Autoclone device (Coulter, Hialeah, Fla.). Cell clones were screened for uniformity of doxycycline inducible dynamin-1 expression by immunofluorescence microscopy. Dyn^K44A-infected cells were hygromycin B (400 μg/ml) and G418 (1 mg/ml) selected for 1-2 weeks. Induction with doxycycline (1 μg/ml) was performed at 32° C. for 72 hr as described previously (Damke et al. J Cell Biol 131, 69-80 1995). Vincristine sulfate (#T-117), Adriamycin.HCL (GR-319) were purchased from Biomol, tetracycline-free FBS from Hyclone, Puromycin from Clontech and Doxycyclin from Sigma. zVAD-fmk (asN-benzyloxycarbonyl-Val-Ala-Asp-fluoromethylketone) was obtained from MD Biosciences (#FK-009). […]

[3] = MCF7 cells, deficient in caspase-3

Substance: Apo2L/TRAIL: Human recombinant soluble Apo2L/TRAIL in non-tagged (trimeric) or Flag-tagged, antibody-crosslinked versions; SEQ ID NO: 7
- Apoptosis (cells with fragmented DNA) [1]: augmented apoptosis
- Ligand-stimulated caspase-3/7 enzymatic activity (caspase-3/7): substantial increase
- Inhibition of the rate of Tf endocytosis (BJAB and Colo205 cells; BJAB and Colo205 cells, pretreatment at 37° C.): 75-85%
- Reduction of Tf endocytosis rate (BJAB and Colo205 cells; Colo205 cells, extended exposure for 2 hr at 37° C.): 5 fold
- DISC assembly with Tf endocytosis blocked (DISC; BJAB cells chilled on ice): still recruited FADD and caspase-8 to their respective receptors and processed caspase-8
- DISC formation, caspase-8 processing and activity despite endocytosis inhibition (DISC; dynG273D BJAB cells, 38° C.): comparable DISC formation, caspase-8 processing, and caspase-8 activity in the DISC
- Ligand-induced DR5 uptake (DR5; 30° C.): ~25%
- Ligand-induced DR5 uptake (DR5; 38° C.): ~10%
- Start of depletion of full-length dynamin after stimulation ([2]; BJAB cells, crosslinked Apo2L/TRAIL): ≤ 1 h
- Cleavage of AP2α isoform C ([2]; BJAB, Colo205, LS1034 and SW948 cells): did not induce cleavage of isoform C
- Caspase processing ([2]; Bax+/- HCT116 cells): stimulated processing of both caspase-8 and -3
- Caspase processing ([2]; Bax-/- HCT116 cells): only of caspase-8
- Proteolysis of structurally analogous adaptors (AP1α, AP3β and δ, AP4ε, β-COP, Sec23) ([2]; Colo205 cells, similar timeframe): did not induce proteolysis
- CHC cleavage [2, 3]: did not stimulate CHC cleavage
- Processing of caspase-8 and AP2α [2, 3]: relatively weak and slow processing of caspase-8 and AP2α
- Processing of AP2α and CHC ([2]; caspase-8-deficient or FADD-deficient mutant Jurkat cell lines): neither ligand stimulated processing of these targets
- Processing of caspase-8 and -3 and cleavage of AP2α, AP1/2β and CHC ([2]; several cancer cell lines, susceptible Colo205, BJAB, HeLa-M, not resistant HCT8): cleavage of AP2α, AP1/2β, and clathrin heavy-chain (CHC)
- Time within which caspase processing and AP2α, AP1/2β, CHC cleavage occurred ([2]; susceptible cell lines Colo205, BJAB, HeLa-M): ≤ 2 h
- Cleavage of AP2α and CHC ([2]; wt Jurkat T cells): induced cleavage of AP2α and CHC
